# Patent US20180133221A1, “ADMINISTRATION OF UBIQUITIN-ACTIVATING ENZYME INHIBITOR AND CHEMOTHERAPEUTIC AGENTS” (Millennium Pharmaceuticals, Inc., priority 2014, published 2018)
# Where two headings read alike, the source gives them in different places.
# Assays:
# [1] = tested on: CTG-0165 human lung NSCLC xenograft; experiment: CTG-0165 xenograft model, Compound 1 and cisplatin; format: in vivo, Mus musculus/nu/nu mice; conditions: for Tumor Volume Day 21: in mm³ (unit assumed)
# Protocol: CTG-0165 tumor fragments (approximately 2×2×3 mm^3) were implanted into the subcutaneous space in the right dorsal flank of female Mus musculus/nu/nu mice (age 6-9 weeks, Harlan Laboratories, Madison, Wis., USA) using a 13-gauge trocar. When the mean tumor volume reached approximately 260 mm^3, the animals were randomized into 8 treatment groups (n=5/group).
# Cisplatin (Teva Pharmaceuticals) is formulated in 0.9% saline and administered by IV injection once weekly (QW) at 7.5 mg/kg. The once weekly schedule is also described as every 7 days (Q7D).
# (§1) Compound 1 [((1R,2R,3S,4R)-2,3-dihydroxy-4-(2-(3-(trifluoromethylthio)-phenyl)pyrazolo[1,5-a]pyrimidin-7-ylamino)cyclopentyl)methyl sulfamate] is formulated in 10-20% HPbCD in sterile water and administered intravenously (IV) or subcutaneously (SC) on a BIW (twice/week schedule; Monday and Thursday or Tuesday and Friday) for either 2-4 weeks.
# (§2) Tumors were measured twice weekly using vernier calipers. Tumor volumes were calculated using the standard formula V=W^2×L/2,). When mean tumor volumes reached approximately 200 mm^3 for PHTX-24C, 220 mm^3 for PHTX-Lu132, 150 mm^3 for CTG-0256, 260 mm^3 for CTG-0486, 185 mm^3 for PHTX-17C, 260 mm^3 for CTG-0165, 150 mm^3 for PHTX-14B in the study of Compound 1 and paclitaxel, 180 mm^3 for PHTX-14B in the study of Compound 1 and docetaxel, 200 mm^3 for SKOV-3, 220 mm^3 for PHTX-02B in the study of Compound 1 and docetaxel, 250 mm^3 for PHTX-02B in the study of Compound 1 and paclitaxel, 195 mm^3 for CTG-0159, 180 mm^3 for CTG-0012 or 150 mm^3 for Calu-6, mice were randomized into groups of n=5-7/arm as described in the tables below, and injected with vehicle, Compound 1 or agents (docetaxel, paclitaxel, oxaliplatin, cisplatin or carboplatin), or the combination of Compound 1 plus one of the agents, at various doses and schedules as described in tables below. Tumor size and body weight were measured approximately twice a week for the duration of the study. Mice are euthanized when their tumor volume reached 10% of their body weight, or when the average tumor volume of a treatment or control group reached approximately 2000 mm^3. Tumor growth continued to be monitored after the dosing period in some studies. Average tumor volume is reported as a function of time for selected arms of selected studies in the Figures.
# (§3) Measurements from day 0 to day 14, day 19, day 21, or day 28 are analyzed as specified in Tables below. All tumor volumes have a value of 1 added to them before log10 transformation. For each animal, the log tumor volume at day 0 is subtracted from the log tumor volume on the subsequent days. This difference vs. time is used to calculate an area under the curve (AUC) for each animal using the trapezoid rule. […] The synergy score for the combination of agents A and B is defined as
# (§4) 100*(mean(AUCAB)−mean(AUCA)−mean(AUCB)+mean(AUCctl))/mean(AUCctl):
# (§5) where AUCAB, AUCA, AUCB, and AUCctl are the AUC values for animals in the combination group, the A group, the B group, and the control group, respectively. The standard error of the synergy score is computed based on the variation in the AUC values among the animals. […] If the P-value is above 0.05, then the combination is considered to be additive. If the P-value is below 0.05, and the synergy score is less than zero, then the combination is considered to be synergistic.
# [2] = tested on: PHTX-02B breast xenograft; experiment: PHTX-02B xenograft model, Compound 1 and paclitaxel; format: in vivo, SCID-NOD mice
# Protocol: (§6) Paclitaxel (Bristol-Myers Squibb Company) is formulated in 0.9% saline and administered by intravenous injection (IV) on every 4 days (Q4D) or once weekly (QW) at 10 and 20 mg/kg. […] Tumors were measured twice weekly using vernier calipers.
# [3] = tested on: CTG-0256 human ovarian xenograft; experiment: CTG-0256 xenograft model, Compound 1 and carboplatin; format: in vivo, Mus musculus/nu/nu mice; conditions: for Volume Tumor Day 14: in mm³ (unit assumed)
# From the text: The CTG-0256 model of human ovarian xenograft model was established from a patient-derived tumor collected during surgery at primary site from a person with ovarian cancer (serous adenocarcinoma with resistant response to carboplatin or paclitaxel). CTG-0256 tumor fragments (approximately 2×2×3 mm^3) were implanted into the subcutaneous space in the right dorsal flank of female Mus musculus/nu/nu mice (age 6-9 weeks, Harlan Laboratories, Madison, Wis.) using a 13-gauge trocar. When the mean tumor volume reached approximately 150 mm^3, the animals were randomized into 7 treatment groups (n=7/group).
# Carboplatin (Teva Pharmaceuticals) is formulated in 0.9% saline and administered by IP injection once weekly (QW) at 25, 50, 60, and 75 mg/kg. The once weekly schedule is also described as every 7 days (Q7D).
# as §1, §2, §3, §4, §5
# [4] = tested on: PHTX-14B breast xenograft; experiment: PHTX-14B xenograft model, Compound 1 and paclitaxel; format: in vivo, Balb/c Nude Mice; conditions: for Tumor Volume Day 28: in mm³ (unit assumed)
# Protocol: as §6
# PHTX-24C colon xenograft = experiment: PHTX-24C xenograft model, Compound 1 and oxaliplatin; format: in vivo, CB-17 SCID mice
# Protocol: (§7) Oxaliplatin (Jiang Su Geng Rui Pharmaceuticals, Inc.) is formulated in 0.9% saline and administered by IP injection once weekly (QW) at 7.5 or 12.5 mg/kg. The once weekly schedule is also described as every 7 days (Q7D).
# as §1, §2, §3, §4
# where AUCAB, AUCA, AUCB, and AUCctl are the AUC values for animals in the combination group, the A group, the B group, and the control group, respectively. […]
# [5] = tested on: PHTX-17C colorectal carcinoma xenograft; format: in vivo; conditions: for Tumor Volume Day 21: in mm³ (unit assumed)
# From the text: The PHTX-17C colorectal carcinoma xenograft model was established from a patient-derived tumor collected during surgery from a person with moderately differentiated adenocarcinoma.PHTX-17C tumor fragments (approximately 2×2×3 mm^3) were implanted into the subcutaneous space in the right dorsal flank of female nude mice (age 5-7 weeks, Balb/c Nude Mice, Shanghai SINO-British SIPPR/BK Lab Animal Ltd, Shanghai, China) using a 13-gauge trocar. When the mean tumor volume reached approximately 185 mm^3, the animals were randomized into 12 treatment groups (n=5/group).
# as §7, §1, §2, §3, §4, §5
# [6] = single agent Compound 1 IV at 20, 15, 6.25 mg/kg BIW
structure (smiles),measurement,setting,value
"NS(=O)(=O)OC[C@H]1C[C@@H](Nc2ccnc3cc(-c4cccc(SC(F)(F)F)c4)nn23)[C@H](O)[C@@H]1O [Compound 1, ((1R,2R,3S,4R)-2,3-dihydroxy-4-(2-(3-(trifluoromethylthio)phenyl)pyrazolo[1,5-a]pyrimidin-7-ylamino)cyclopentyl)methyl sulfamate]",Tumor Volume Day 21,[1]; 6.25 mg/kg Compound 1 BIWx3 IV,988.8
same,Tumor Volume Day 21,[1]; 15 mg/kg Compound 1 BIWx3 IV,1624.9
same,Tumor Volume Day 21,[1]; 20 mg/kg Compound 1 BIWx3 IV,1476.3
same,anti-tumor activity compared to vehicle control,[1]; [6],modest to weak anti-tumor activity
same,Tumor Volume Day 19,"[2]; 6.25 mg/kg Compound 1 BIWx3 IV, in mm³ (unit assumed)",1850.4
same,anti-tumor activity compared to vehicle control,"[2]; single agent Compound 1 IV at 6.25, and 12.5 mg/kg BIW for 3 weeks",minimal to modest anti-tumor activity
same,Volume Tumor Day 14,[3]; 6.25 mg/kg Compound 1 BIWx2 IV,1291.5
same,Volume Tumor Day 14,[3]; 15 mg/kg Compound 1 BIWx2 IV,1638.6
same,Volume Tumor Day 14,[3]; 20 mg/kg Compound 1 BIWx2 IV,1406.7
same,anti-tumor activity compared to vehicle control,[3]; [6],modest to weak anti-tumor activity
same,Tumor Volume Day 28,[4]; 10 mg/kg Compound 1 BIWx4 SC,690.0
same,Tumor Volume Day 28,[4]; 20 mg/kg Compound 1 BIWx4 SC,480.6
same,Tumor Volume Day 28,[4]; 30 mg/kg Compound 1 BIWx4 SC,165.1
same,anti-tumor activity,[4]; single agent Compound 1 SC at 30 mg/kg BIW for 4 weeks,strong anti-tumor activity
same,anti-tumor activity compared to vehicle control,"[4]; single agent Compound 1 SC at 10, and 20 mg/kg BIW for 4 weeks",modest anti-tumor activity
same,Tumor Volume Day 21,"PHTX-24C colon xenograft; 10 mg/kg Compound 1 BIWx3 IV, in mm³ (unit assumed)",609.3
same,anti-tumor activity compared to vehicle control,PHTX-24C colon xenograft; single agent Compound 1 IV at 10 mk/kg BIW,modest anti-tumor activity
same,Tumor Volume Day 21,[5]; 20 mg/kg Compound 1 BIWx3 IV,1875.6
same,Tumor Volume Day 21,[5]; 25 mg/kg Compound 1 BIWx3 IV,2159.3
same,Tumor Volume Day 21,[5]; 30 mg/kg Compound 1 BIWx3 IV,1612.7
same,anti-tumor activity compared to vehicle control,"[5]; single agent Compound 1 IV at 20, 25, 30 mg/kg BIW",modest anti-tumor activity
